As usually defined, the IC50 is the concentration at which inhibition is half-maximal. Read a high IC50 as lower potency.

Five compounds from patent US8822439B2, “Glucocorticoid receptor agonists” (Pfizer Inc., priority 2007, dated 2014) can be followed below.

In experiment [1] the test system is TNF-α release from LPS stimulated isolated human peripheral mononuclear cells (PBMC). Nature of the experiment: Inhibition of TNF-α release from LPS stimulated isolated human PBMC. The format is cell-based. The following applies: 1 h preincubation, 18 hours after LPS, ELISA. As to the method:
(§1) The anti-inflammatory activity of the compounds against human leukocytes in vitro was also evaluated by determining inhibition of tumour necrosis factor-α (TNF-α) release from lipopolysaccharide (LPS) stimulated human whole blood (WB) and isolated human peripheral mononuclear cells (PBMC).
(§2) Peripheral venous blood from healthy, non-medicated donors was collected using ethylenediaminetetraacetic acid (EDTA) as the anti-coagulant. For PBMC preparation, samples of blood were diluted 1:1 with sterile phosphate buffered saline and then separated using ACCUSPIN™ System-Histopaque®-1077 tubes (Sigma-Aldrich, St Louis, Mo.), centrifuged at 400 g for 35 minutes. Buffy coat cells were removed into PBS, centrifuged at 200 g for 10 minutes and re-suspended in PBMC assay buffer (Hanks Balanced Salt Solution, 0.28% [w/v] 4-[2-hydroxyethyl]-1-piperazineethanesulfonic acid [HEPES], 0.01% [w/v] low-endotoxin bovine serum albumin [BSA]. A differential white cell count was performed and PBMC's diluted to 1×10^6 lymphocytes per ml in PBMC assay buffer.
(§3) Test compounds were dissolved in DMSO and diluted in PBMC assay buffer (final DMSO concentration 1%) to cover an appropriate concentration range, e.g 0.001 nM to 10000 nM. Samples of test compound solution or vehicle (20 μl) were added into 96-well tissue culture treated plates (Corning) and PBMC (160 μl) or WB (160 μl) added to each well. The assay mixtures were incubated at 37° C. for 1 h in a humidified incubator containing an atmosphere of air supplemented with 5% CO2 before adding LPS (20 μl of 100 ng/ml for PBMC or 1 μg/ml for WB). Plates were returned to the incubator for a further 18 hours, and then centrifuged before recovery of samples of supernatant. TNF-α in the samples was determined using an enzyme-linked immunosorbent assay (ELISA) (Invitrogen kit no CHC-1754; Invitrogen Carlsbad, Calif.) and following the manufacturers instructions. Dose response curves were constructed from which IC50 values were calculated.
(In an ELISA, binding on a coated surface is turned into a signal by an enzyme label.)

The test system of experiment [2] is TNF-α release from LPS stimulated human whole blood (WB). Description: Inhibition of TNF-α release from LPS stimulated human whole blood. The format is cell-based. The note with it: 1 h preincubation, 18 hours after LPS, ELISA. As to the method: as §1, §2, §3
The subject of experiment [3] is LPS-induced lung neutrophils. Description: Inhibition of LPS-induced lung neutrophilia in rats after intratracheal dosing. The format is in vivo. The note with it: male CD Sprague-Dawley rats; single intratracheal dose 4 hours before nebulised LPS; BAL 4 hours after LPS. The method, then:
The pharmacological activity may be assessed in in vivo models of lung inflammation such as the one described below. The primary objective of this procedure was to determine the anti-inflammatory activity of the compounds of formula (I), when administered directly into the lungs via the trachea.
Test compounds were dissolved, or prepared as fine suspensions, in phosphate buffered saline containing 0.5% (w/v) Tween-80 to provide a range of dose levels. Male CD Sprague-Dawley rats (300-450 g) were randomised to study groups of n=6 and then briefly anaesthetised in an anaesthetic chamber with 5% Isoflurane in 3 l/min O2. One of the test compound formulations or dose vehicle (100 μl) was injected directly into the trachea of each anaesthetised rat using a Hamilton syringe. The animals were then allowed to recover from the anaesthetic. Dependent on the study design, animals received either a single dose of compound or were treated once daily on 4 successive days. Four hours after the dosing (or 4 hours after the final dose in repeat dose studies) the rats were placed into a chamber (300×300×450 mm), connected to an ultrasonic nebuliser and a small animal rodent ventilator set to the maximum tidal volume and rate (5 ml, 160 strokes/min). 10 ml of 1 mg/ml LPS (Sigma-Aldrich, L2630) dissolved in saline, pre-warmed to 37° C., was nebulised into the chamber. After 15 minutes the ventilator and nebuliser were turned off and the animals remained in the chamber to breathe the mist for a further 15 minutes before being returned to the home cage.
Four hours after the end of the LPS treatment the animals were terminally anaesthetised with 1 ml/kg Pentoject IP. The trachea was cannulated and the lungs lavaged with 4×2.5 ml PBS containing 2.6 mM EDTA and the lavage fluid collected. 1 ml bronchioalveolar lavage (BAL) was added to 125 μl of 40% bovine serum albumen (BSA) and the cellular count determined using an Advia 120 haematology system (Siemens). In repeat dose studies, bodyweights and weights of adrenal glands and thymus were also determined as these are known to decrease in response to glucocorticoid agonist exposure and have been used to assess the systemic effects of glucocorticoid agonists. In some repeat dose experiments, a terminal blood sample was collected from each rat, serum and plasma prepared, and concentrations of corticosterone in serum and ACTH in plasma were determined as additional markers of systemic glucocorticoid agonist effect. In some studies a known glucocorticoid agonist, fluticasone propionate, was administered to separate groups of rats as a positive control.
Separate dose response curves were constructed, for inhibition of LPS-induced lung neutrophils, and each marker of glucocorticoid agonist systemic effect. Half maximal effect doses (ED50) values were estimated from the fitted curves. The ED50 values for effect on systemic markers of glucocorticoid agonist activity were also divided by the ED50 for inhibition of lung neutrophilia in order to determine values for therapeutic index (TI).

Regarding `C[C@]12C=CC(=O)C=C1[C@@H](F)C[C@H]1[C@@H]3C[C@H]4O[C@@H](c5ccc(CSc6ccc(O)cc6)cc5)O[C@@]4(C(=O)CO)[C@@]3(C)C[C@H](O)[C@@]12F` [Example 3, (4aS,4bR,5S,6aS,6bS,8R,9aR,10aS,10bS,12S)-4b,12-Difluoro-6b-glycoloyl-5-hydroxy-8-(4-{[(4-hydroxyphenyl)thio]methyl}phenyl)-4a 0.6a-dimethyl-4a,4b,5,6,6a,6b,9a,10,10a,10b,11,12-dodecahydro-2H-naphtho[2′,1′:4,5]indeno[1,2-d][1,3]dioxol-2-one], the concentration for half-maximal inhibition (IC50) in experiment [1] stood at 0.061 nM; in experiment [2] it was 24 nM. Also, in experiment [3], the “ED50 for inhibition of lung neutrophilia” value was determined as 0.45 µg.
The matching figures for `C[S+]([O-])c1cccc(Sc2ccc([C@@H]3O[C@@H]4C[C@H]5[C@@H]6C[C@H](F)C7=CC(=O)C=C[C@]7(C)[C@@]6(F)[C@@H](O)C[C@]5(C)[C@]4(C(=O)CO)O3)cc2)c1` (stereo partly drawn) [Example 4, (4aS,4bR,5S,6aS,6bS,8R,9aR,10aS,10bS,12S)-4b,12-difluoro-6b-glycoloyl-5-hydroxy-4a,6a-dimethyl-8-(4-{[3-(methylsulfinyl)phenyl]thio}phenyl)-4a,4b,5,6,6a,6b,9a,10,10a,10b,11,12-dodecahydro-2H-naphtho[2′,1′:4.5]indeno[1,2-d][1,3]dioxol-2-one]: 0.059 nM, 40 nM and 2.00 µg.
The matching figures for `C[C@]12C=CC(=O)C=C1[C@@H](F)C[C@H]1[C@@H]3C[C@H]4O[C@@H](c5ccc(Cc6ccccc6)cc5)O[C@@]4(C(=O)CO)[C@@]3(C)C[C@H](O)[C@@]12F` [Example 1, (4aS,4bR,5S,6aS,6bS,8R,9aR,10aS,10bS,12S)-8-(4-Benzylphenyl)-4b,12-difluoro-6b-glycoloyl-5-hydroxy-4a,6a-dimethyl-4a,4b,5,6,6a,6b,9a,10,10a,10b,11,12-dodecahydro-2H-naphtho[2′,1′:4,5]indeno[1,2-d][1,3]dioxol-2-one]: 0.098 nM, 17 nM and 0.27 µg.
Regarding `CSc1cccc(Sc2ccc([C@@H]3O[C@@H]4C[C@H]5[C@@H]6C[C@H](F)C7=CC(=O)C=C[C@]7(C)[C@@]6(F)[C@@H](O)C[C@]5(C)[C@]4(C(=O)CO)O3)cc2)c1` [Example 2, (4aS,4bR,5S,6aS,6bS,8R,9aR,10aS,10bS,12S)-4b,12-difluoro-6b-glycoloyl-5-hydroxy-4a 0.6a-dimethyl-8-(4-{[3-(methylthio)phenyl]thio}phenyl)-4a,4b,5,6,6a,6b,9a,10,10a,10b,11.,12-dodecahydro-2H-naphtho[2′,1′:4,5]indeno[1,2-d][1,3]dioxol-2-one], the IC50 turned out to be 0.092 nM in experiment [1] and 49 nM in experiment [2]. Besides, the “ED50 for inhibition of lung neutrophilia” value in experiment [3] stood at 0.18 µg.
As to `C[C@]12C=CC(=O)C=C1[C@@H](F)C[C@H]1[C@@H]3C[C@H]4O[C@@H](c5ccc(CSc6ccc(O)c(Cl)c6)cc5)O[C@@]4(C(=O)CO)[C@@]3(C)C[C@H](O)[C@@]12F` [Example 5, (4aS,4bR,5S,6aS,6bS,8R,9aR,10aS,10bS,12S)-8-(4-{[(3-chloro-4-hydroxyphenyl)thio]methyl}phenyl)-4-b,12-difluoro-6b-glycoloyl-5-hydroxy-4a,6a-dimethyl-4a,4b,5,6,6a,6b,9a,10,10a,10b. 11,12-dodecahydro-2H-naphtho[2′,1′:4.5]indeno[1,2-d][1,3]dioxol-2-one], the IC50 in experiment [1] turned out to be 0.032 nM; in experiment [2], 8.73 nM. The “ED50 for inhibition of lung neutrophilia” value in experiment [3] amounted to 3.6 µg.
